Measured values: publication PMC4876444, “Two-Photon Enzymatic Probes Visualizing Sub-cellular/Deep-brain Caspase Activities in Neurodegenerative Models” (Scientific Reports, 2016)
Where a SMILES comes first, the peptide text is derived from it. The star is where a group is joined. NH(6-Ac-2-naphthyl) = CC(=O)c1ccc2cc(N*)ccc2c1; Cbz = O=C(OCc1ccccc1)*; CH2F = FC*

Key:
[1] = not given; remark: listed apart in the source
[2] = system: NIH/3T3, BV2 and HeLa cells; test: XTT cytotoxicity assay; format: cell-based, mouse, human; conditions: XTT assay, 12, 30, 60, 120 μM, 24 h
Experimental: Supplementary Figure 4. Cytotoxicity of two-photon enzymatic probes (12, 30, 60, 120 μM) in mammalian cells (NIH/3T3, BV2 and HeLa) after incubation for 24 h, as determined by XTT assay. […]
Detection of caspase activities in mammalian cells and tissues
Cell culture. The mouse embryonic fibroblast cell line (NIH/3T3), mouse microglial cell line (BV2) and human epithelial carcinoma cell line (HeLa) used in our experiments were cultured in Dulbecco’s Modified Eagle's Medium (DMEM) supplemented with 10% (for NIH/3T3 and HeLa) or 5% (for BV2) fetal bovine serum (FBS), 100.0 mg/L streptomycin and 100 IU/mL penicillin in a humidified atmosphere of 5% CO2 at 37 °C.
XTT assay. The cytotoxicity of our probes was determined by using the XTT colorimetric cell proliferation kit (Roche) following manufacturer’s guidelines. Briefly, NIH/3T3, BV2 and HeLa cells were seeded in 20~30% confluency (since they will reach >50% confluency within 24 h) into 96-well plates and incubated overnight before the addition of probes with concentrations of 12 μM, 30 μM, 60 μM and 120 μM, respectively. Probes were applied from DMSO stocks whereby DMSO never exceeded 1% in the final solution. The same volume of DMSO was used as a negative control; and the same volume of STS (200 nM) was used as a positive control. After a total treatment time of 24 h, proliferation was assayed using the XTT assay (Supplementary Fig. 4). […]

[3] = not given; remark: listed apart in the source
[4] = system: caspases (-1, -3, -6, -8 and -9); test: In vitro selectivity against a panel of recombinant caspases; format: biochemical, Human; conditions: probe 6 μM, uniform conditions with caspases -1, -3, -6, -8, -9, 2-h incubation at room temperature, tetrapeptide-AMC as references
Experimental: Figure 2 Photophysical and enzymatic properties of caspase probes. (a) Photophysical and kinetic properties of probes and free dyes. All measurements were taken in 50 mM HEPES, 50 mM NaCl, 0.1% CHAPS, 10 mM EDTA, 5% glycerol, 10 mM DTT, at pH = 7.2. (b) Time-dependent ratiometric fluorescence changes of C1RB (6 μM) incubated with caspase-1 (10 nM) over 2 h at room temperature. Data were obtained by plotting the normalized ratio of fluorescence intensity at 500 nm (F500 nm) over that at 450 nm (F450 nm). (Inset) time-dependent fluorescence emission spectra with λex = 350 nm. (c) Time-dependent “Turn-ON” effect of C1FS (6 μM) incubated with caspase-1 (10 nM) measured and normalized at 460 nm (F460 nm) over 2 h at room temperature, with the corresponding fluorescence emission spectra (inset). λex = 350 nm. […] S and N represent the fluorescence emission intensity of each reaction solution in the presence (S) and absence (N) of caspase-1. […] Normalized, relative fluorescence (RFU) values were obtained after 2-h incubation at room temperature. […]
Enzyme kinetics. […] Detailed kinetic properties of these probes were measured with target recombinant caspases using commercial tetrapeptide-AMC fluorogenic substrates as references at 25 °C in 384-well plates (Greiner Bio-One #781900). […]
shaking at 150 rpm for 24 h at 25 °C, a small portion of the reaction was analyzed by LC-MS (IT-TOF). […]

[5] = system: caspase-3-like activities in STS-induced BV2 and HeLa cells; test: TPFM live-cell imaging of STS-induced apoptotic cells; format: cell-based, mouse, human
Experimental: Figure 3 Bioimaging of active caspases in live cells. TPFM (λex = 760 nm; λem = 480-550 nm for all AAN-probes) of STS-induced (a) BV2 cells (2 μM, 4 h) and (b) HeLa cells (1 μM, 4 h) using C3RA/C8RA (24 μM, 1 h). Panels 3/6: cells pretreated with Z-VAD(OMe)-FMK (50 μM, 1 h) before STS addition. Panels 1/4: normal cells (DMSO). (c) WB analysis of cleaved caspase-3/-8 from (a,b). (d) TPFM of normal/apoptotic Hela cells imaged by C3RA (24 μM, up) or Ac-DEVD-AMC (40 μM, down; λem = 420–500 nm). Panels 1/3: normal cells. Panels 2/4: STS-induced cells (1 μM, 4 h). Bottom inset: bright field. Top inset: one-photon images (λex = 405 nm). (e) Real-time imaging of caspase-3/-8-like activities in live BV2 cells using 24 μM of C3RA (top)/C8RA (bottom) upon STS (2 μM) stimulation over 2 h. (f) Graphical quantification of RFU extracted from (e). (g) WB analysis of time-dependent caspase-3/-8 cleavage from STS-induced (2 μM) BV2 lysates. (h) WB analysis of time-dependent caspase-3/-7/-8 activation by detection of cleaved caspase-3/-7/-8 from lysates of HeLa cells stimulated with STS (2 μM). (i) RFU from real-time imaging of caspase-3-like activity in live HeLa cells with C3RA/C3RM/C3RE (24 μM, added 1 h before STS) upon STS (2 μM) stimulation. (j) Representative images (t = 60 min) from (i). (k) IF of STS-stimulated (2 μM, 2 h) HeLa cells by anti-caspase-3 (p17) antibody (red) with 3D projections of z-stack images at 90° view and merged with MitoTracker (green, left) or ER tracker (cyan, right). (l) TPFM of caspase-1 activation in primary cortical neurons upon glucose deprivation (GD, 8 h) followed by 1-h incubation with C1RB (24 μM) or C1FS (12 μM; λem = 450–550 nm). Inset: bright field images. NC: neuron cells incubated in normal neurobasal medium. Scale bar = 10 μm in all images.
NIH/3T3, HeLa and BV2 cell lines used in our experiments were cultured in DMEM medium supplemented with 10% (for NIH/3T3 and HeLa) or 5% (for BV2) fetal bovine serum (FBS), with 100.0 mg/L streptomycin and 100 IU/mL penicillin. […]

Row | Molecule | λex (absorption/excitation maximum) | δΦ (two-photon action cross-section) [1] | cytotoxicity [2] | λem (emission maximum) [3] | probe selectivity profile towards intended caspase [4] | effect of inhibitor on C3RA fluorescence in STS-induced cells ([5]; inhibitor 50 μM, 1 h before STS, BV2 and HeLa cells, C3RA 24 μM) | fluorescence properties for imaging caspase-3-like activities under two-photon settings, compared to C3RA ([5]; live HeLa cells, STS 1 μM 4 h, 40 μM, λex 760 nm)
1 | CC[C@H](C)[C@H](NC(C)=O)C(=O)N[C@@H](CCC(=O)O)C(=O)N[C@H](C(=O)N[C@@H](CC(=O)O)C(=O)Nc1ccc2cc(C(C)=O)ccc2c1)[C@@H](C)O [C8RA, Ac-IETD-AAN] (Ac-IETD-{NH(6-Ac-2-naphthyl)}) | 316 nm | 2.4 GM | minimally cytotoxic | 448 nm | – | – | –
2 | CC(=O)N[C@@H](CC(C)C)C(=O)N[C@@H](CCC(=O)O)C(=O)N[C@@H](Cc1c[nH]cn1)C(=O)N[C@@H](CC(=O)O)C(=O)Nc1ccc2cc(C(C)=O)ccc2c1 [C9RA, Ac-LEHD-AAN] (Ac-LEHD-{NH(6-Ac-2-naphthyl)}) | 316 nm | 3.2 GM | – | 448 nm | comparatively poor selectivity profiles | – | –
3 | Cbz-Val-Ala-Asp(OMe)-CH2F | – | – | – | – | – | inhibited | –
4 | CC[C@H](C)[C@H](NC(=O)[C@H](CCC(=O)O)NC(=O)[C@@H](NC(C)=O)C(C)C)C(=O)N[C@@H](CC(=O)O)C(=O)Nc1ccc2cc(C(C)=O)ccc2c1 [C6RA, Ac-VEID-AAN] (Ac-VEID-{NH(6-Ac-2-naphthyl)}) | 316 nm | 1.8 GM | – | 448 nm | comparatively poor selectivity profiles | – | –
5 | CC(=O)c1ccc2cc(NC(=O)[C@H](CC(=O)O)NC(=O)[C@@H](NC(=O)[C@H](CCC(=O)O)NC(=O)[C@H](CC(=O)O)NC(=O)CCC[P+](c3ccccc3)(c3ccccc3)c3ccccc3)C(C)C)ccc2c1 [C3RM, TPP-DEVD-AAN] | 317 nm | 1.4 GM | minimally cytotoxic | 448 nm | – | – | –
6 | CC(=O)N[C@@H](CC(=O)O)C(=O)N[C@@H](CCC(=O)O)C(=O)N[C@H](C(=O)N[C@@H](CC(=O)O)C(=O)Nc1ccc2c(C)cc(=O)oc2c1)C(C)C [Ac-DEVD-AMC] | – | – | – | – | – | – | significantly poorer fluorescence properties
7 | CC(=O)N[C@@H](Cc1ccc(O)cc1)C(=O)N[C@H](C(=O)N[C@@H](C)C(=O)N[C@@H](CC(=O)O)C(=O)Nc1ccc2cc(C(C)=O)ccc2c1)C(C)C | 316 nm | 6.9 GM | – | 448 nm | – | – | –
